From the supplement of paper PMC10307832

Legend:
Experiment in all cases: relative viability (nuclei count vs DMSO), 5 days (fraction); higher = more cells survive
[1] = compound: C[C@]12O[C@H](C[C@]1(O)CO)n1c3ccccc3c3c4c(c5c6ccccc6n2c5c31)CNC4=O [Lestaurtinib] + O=C(c1cc(Cc2n[nH]c(=O)c3ccccc23)ccc1F)N1CCN(C(=O)C2CC2)CC1 [Olaparib] (partner 8 µM)
How it was run: (§1)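 Medians of duplicate plates are given as relative viability. That measure is the nuclei count in treated wells divided by the count in vehicle wells. Counts were taken on 4× images of lung cancer cell lines in 1536-well plates, 5 days after pin-tool dosing the day after seeding with one drug alone or a fixed anchor-drug dose plus five library-drug doses (not always all listed) in √10 steps.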

[2] = compound: C1/C(=C\C2=CC=CS2)/C(=O)/C(=C/C3=CC=CS3)/C1 + O=C(CCCCCCC(=O)Nc1ccccc1)NO [Vorinostat] (partner 1 µM)
How it was run: as §1

[3] = compound: C[C@]12O[C@H](C[C@]1(O)CO)n1c3ccccc3c3c4c(c5c6ccccc6n2c5c31)CNC4=O [Lestaurtinib] + CC1(C)CCC(c2ccc(Cl)cc2)=C(CN2CCN(c3ccc(C(=O)NS(=O)(=O)c4ccc(N[C@H](CCN5CCOCC5)CSc5ccccc5)c(S(=O)(=O)C(F)(F)F)c4)cc3)CC2)C1 [Navitoclax] (partner 0.5 µM)
How it was run: as §1

[4] = compound: C1/C(=C\C2=CC=CS2)/C(=O)/C(=C/C3=CC=CS3)/C1 + C[C@@H](Oc1cc(-c2cnn(C3CCNCC3)c2)cnc1N)c1c(Cl)ccc(F)c1Cl [Crizotinib] (partner 1 µM)
How it was run: as §1

| Cell Line | relative viability ([1]; first compound 0.005 µM) | relative viability ([1]; first compound 0.01581 µM) | relative viability ([1]; first compound 0.05 µM) | relative viability ([1]; first compound 0.1581 µM) | relative viability ([1]; first compound 0.5 µM) | relative viability ([2]; first compound 0.2 µM) | relative viability ([2]; first compound 0.6325 µM) | relative viability ([2]; first compound 2 µM) | relative viability ([2]; first compound 6.325 µM) | relative viability ([2]; first compound 20 µM) | relative viability ([3]; first compound 0.005 µM) | relative viability ([3]; first compound 0.01581 µM) | relative viability ([3]; first compound 0.05 µM) | relative viability ([3]; first compound 0.1581 µM) | relative viability ([3]; first compound 0.5 µM) | relative viability ([4]; first compound 0.2 µM) | relative viability ([4]; first compound 0.6325 µM) | relative viability ([4]; first compound 2 µM) | relative viability ([4]; first compound 6.325 µM) | relative viability ([4]; first compound 20 µM) |
| --- | --- | --- | --- | --- | --- | --- | --- | --- | --- | --- | --- | --- | --- | --- | --- | --- | --- | --- | --- | --- |
| NCI-H596 | 0.646 | 0.669 | 0.61 | 0.66 | 0.696 | 0.532 | 0.469 | 0.609 | 0.612 | 0.727 | 0.968 | 0.978 | 0.937 | 1.15 | 0.943 | 1.09 | 0.975 | 1.04 | 0.981 | 0.949 |
| NCI-H2087 | 0.589 | 0.725 | 0.559 | 0.673 | 0.309 | 0.623 | 0.656 | 0.7 | 0.616 | 0.361 | 0.946 | 0.853 | 0.686 | 0.707 | 0.26 | 0.867 | 0.901 | 0.746 | 0.735 | 0.993 |
| EMC-BAC-2 | 0.531 | 0.466 | 0.493 | 0.356 | 0.29 | 0.351 | 0.473 | 0.453 | 0.455 | 0.489 | 1.25 | 1.22 | 0.891 | 0.656 | 0.346 | 0.789 | 0.792 | 0.751 | 0.59 | 0.695 |
| NCI-H1355 | 0.804 | 0.754 | 0.563 | 0.566 | 0.369 | 0.664 | 0.627 | 0.705 | 0.598 | 0.587 | 0.908 | 0.889 | 0.73 | 0.457 | 0.459 | 1.19 | 1.05 | 1.03 | 0.943 | 1.08 |
| NCI-H23 | 0.327 | 0.295 | 0.291 | 0.301 | 0.203 | 0.662 | 0.628 | 0.702 | 0.564 | 0.591 | 0.862 | 0.84 | 0.918 | 0.784 | 0.422 | 0.411 | 0.627 | 0.661 | 0.527 | 0.511 |
| NCI-H1651 | 0.166 | 0.199 | 0.17 | 0.169 | 0.147 | 0.553 | 0.63 | 0.694 | 0.509 | 0.558 | 1.12 | 1.12 | 0.79 | 1.05 | 0.471 | 0.863 | 0.876 | 0.893 | 0.816 | 0.855 |
| NCI-H1975 | 0.802 | 0.856 | 0.651 | 0.757 | 0.408 | 0.814 | 0.671 | 0.774 | 0.689 | 0.731 | 1.25 | 1.23 | 1.03 | 0.666 | 0.473 | 0.988 | 0.957 | 1.02 | 0.718 | 0.971 |
| COR-L23 | 0.374 | 0.428 | 0.37 | 0.339 | 0.156 | 0.475 | 0.597 | 0.477 | 0.348 | 0.451 | 1.14 | 1.12 | – | 0.62 | 0.184 | 0.536 | 0.69 | 0.639 | 0.592 | 0.633 |
| HCC-44 | 0.994 | 0.984 | 0.96 | 1.16 | 0.675 | 1.09 | 1.08 | 1.01 | 0.995 | 1.03 | 0.88 | 1.06 | 0.925 | 1.12 | 0.62 | 0.802 | 0.862 | 0.712 | 0.734 | 0.798 |
| LOU-NH91 | 0.894 | 0.903 | 0.89 | 0.712 | 0.531 | 1.03 | 0.934 | 1.01 | 0.782 | 0.973 | 0.698 | 0.583 | 0.438 | 0.371 | 0.272 | 0.739 | 0.572 | 0.743 | 0.679 | 0.714 |
| NCI-H441 | 0.557 | 0.513 | 0.495 | 0.48 | 0.379 | 0.863 | 0.676 | 0.683 | 0.743 | 0.78 | 0.48 | 0.575 | 0.571 | 0.448 | 0.313 | 0.967 | 0.786 | 1.06 | 0.729 | 0.604 |
| NCI-H647 | 0.67 | 0.67 | 0.186 | 0.211 | 0.108 | 0.44 | 0.539 | 0.398 | 0.423 | 0.774 | 1.08 | 0.945 | 0.572 | 0.465 | 0.116 | 1.2 | 1.1 | 1.12 | 0.992 | 1 |
| NCI-H1915 | 0.259 | 0.285 | 0.273 | 0.296 | 0.143 | 0.568 | 0.546 | 0.551 | 0.433 | 0.528 | 0.766 | 0.801 | 0.774 | 0.724 | 0.503 | 0.86 | 0.951 | 0.912 | 0.841 | 0.893 |
| NCI-H1734 | 0.647 | 0.626 | 0.578 | 0.533 | 0.271 | 0.82 | 0.875 | 0.837 | 0.745 | 0.865 | 0.849 | 0.957 | 0.657 | 0.512 | 0.159 | 0.617 | 0.78 | 0.631 | 0.606 | 0.731 |
| NCI-H1993 | 0.76 | 1.16 | 1.14 | 1.04 | 0.463 | 0.729 | 0.701 | 0.972 | 0.702 | 0.561 | 1.16 | 0.991 | 0.846 | 0.632 | 0.7 | 0.897 | 0.9 | 0.784 | 0.63 | 0.743 |
| LK-2 | 0.767 | 0.896 | 0.602 | 0.466 | 0.133 | 0.255 | 0.337 | 0.432 | 0.324 | 0.32 | 1.01 | 0.838 | 0.673 | 0.374 | 0.169 | 0.249 | 0.225 | 0.218 | 0.215 | 0.242 |
| HCC-78 | 0.843 | 0.835 | 0.765 | 0.566 | 0.385 | 0.51 | 0.401 | 0.441 | 0.425 | 0.385 | 0.897 | 0.906 | 0.533 | 0.333 | 0.211 | 0.334 | 0.35 | 0.354 | 0.313 | 0.327 |
| NCI-H2405 | 0.98 | 1.01 | 0.913 | 0.846 | 0.486 | 0.991 | 1.02 | 1.08 | 0.876 | 1.14 | 1 | 0.86 | 0.889 | 0.55 | 0.216 | 0.904 | 0.851 | 0.851 | 0.798 | 0.839 |
| HOP-62 | 0.287 | 0.763 | 0.515 | 0.525 | 0.16 | 0.733 | 0.681 | 0.646 | 0.51 | 0.68 | 0.979 | 1.07 | 0.657 | 0.916 | 0.988 | 0.985 | 1.07 | 1 | 0.712 | 0.804 |
| BEN | 1.24 | 1.07 | 1.1 | 0.853 | 0.521 | 0.64 | 0.537 | 0.661 | 0.566 | 0.535 | 0.0676 | 0.07 | 0.0559 | 0.0652 | 0.0525 | 0.941 | 0.947 | 1.02 | 0.861 | 0.706 |
| SW 1573 | 0.554 | 0.567 | 0.451 | 0.383 | 0.145 | 0.756 | 0.971 | 0.89 | 0.721 | 0.808 | 1.14 | 1.01 | 0.851 | 0.699 | 0.68 | 0.778 | 0.693 | 0.889 | 0.749 | 0.895 |
| ChaGo-K-1 | 0.424 | 0.464 | 0.427 | 0.387 | 0.279 | 0.761 | 0.749 | 0.703 | 0.511 | 0.254 | 1.03 | 1.59 | 0.962 | 0.603 | 0.497 | 1.16 | 1.23 | 1.08 | 1.05 | 0.76 |
| SK-MES-1 | 0.782 | 0.676 | 0.448 | 0.33 | 0.175 | 1.18 | 1.13 | 1.1 | 0.985 | 1.11 | 1.35 | 1.25 | 0.59 | 0.354 | 0.343 | 0.978 | 1.04 | 0.903 | 0.879 | 0.917 |
| NCI-H1755 | 0.953 | 0.944 | 0.753 | 0.628 | 0.373 | 0.725 | 0.857 | 0.745 | 0.777 | 0.716 | 1.01 | 0.944 | 0.633 | 0.265 | 0.223 | 0.867 | 0.896 | 0.822 | 0.704 | 0.831 |
| NCI-H2023 | 0.519 | 0.493 | 0.578 | 0.364 | 0.18 | 0.722 | 0.67 | 0.727 | 0.582 | 0.539 | 1.13 | 1.06 | 0.875 | 0.88 | 0.252 | 0.685 | 0.602 | 0.762 | 0.652 | 0.684 |
| LC-2-ad | 0.82 | 0.823 | 0.832 | 0.55 | 0.28 | 0.696 | 0.745 | 0.711 | 0.647 | 0.64 | 0.344 | 0.402 | 0.201 | 0.137 | 0.107 | 0.488 | 0.503 | 0.454 | 0.368 | 0.484 |
